Series [1] has as its system p62 and PMEL (premelanosome protein). Kind of series: p62 and PMEL expression (Western blot). The series is classed as cell-based, mouse. As to conditions: for effect on the suppressed expression of p62 and PMEL induced by β-mangostin: autophagy inhibitor with β-mangostin and α-MSH. On the procedure: (§1) Total proteins were extracted by using RIPA dissolving buffer (50 mM Tris-HCl (pH 8.0), 150 mM NaCl, 1% NP-40, 0.5% sodium dioxycholate and 0.1% SDS). The proteins were separated on a 10 to 15% SDS-PAGE, and transferred to a PVDF membrane (Millipore, Billerica, MA, USA). The membrane was then incubated with 5% skim milk and primary antibody for 1 hour in TBS (tris-buffer saline) containing 0.1% Tween 20. The antibodies against tyrosinase and TRP-1 were purchased from Santa Cruz Biotechnology, USA. LC3B, p62 and ATG5 were purchased from CST (Cell Signaling Technology, USA). The antibody against PMEL was purchased from Abcam (UK). Signal detection was made based on enhanced chemiluminescence (Bio-Rad).
Autophagy occurs through a fusion process between an autophagosome and a lysosome. In order to confirm whether or not the depigmentation effect induced by β-mangostin occurs through lysosome-dependent protein degradation during the autophagy process, B16F10 cells were treated with bafilomycin A1 (liquid vacuole type, H^+-ATPase inhibitor) which inhibits β-mangostin, α-MSH, and lysosome activity. As a result, as it is shown in FIG. 7, bafilomycin A1 inhibits, at the aforementioned conditions, the suppressed tyrosinase expression that has been induced by β-mangostin.

The test system of series [2] is B16F10 mouse melanoma cells. Kind of series: Melanin content in α-MSH-treated cells. The series is classed as cell-based. The note with it: for influence on melanin content: co-treatment of inhibitor with β-mangostin and α-MSH; for melanin content reduction / change in melanin content: co-treatment with α-MSH, compared to α-MSH only; for melanin content reduction: 5 μM. On the procedure:
Measurement of melanin content was carried out by slightly modifying the method by Yang et al. (Yang et al., 2006, Acta pharmacologica Sinica 27, 1467-73). Specifically, B16F10 cells were inoculated into a 6-well plate and cultured for 24 hours. […] The cultured cells were collected after being subjected to trypsinization and dissolution in 1 N NaOH containing DMSO for 24 hours at 65° C. By using a microplate reader (Bio-Rad), melanin content was measured at 415 nm.
(§2) As a result, as it is shown in FIG. 3, cell pellets were turned into black color when the treatment is carried out with α-MSH only. […] Namely, it was shown that β-mangostin suppresses the pigmentation induced by α-MSH. […] In particular, when the treatment is carried out with β-mangostin at 5 μM, which is the same concentration as α-mangostin, melanin content was reduced by 40% or so.

The test system of series [3] is tyrosinase. The experiment in a line: Tyrosinase expression (RT-PCR and Western blotting). The format is cell-based, mouse. The note with it: for effect on the suppressed tyrosinase expression induced by β-mangostin: autophagy inhibitor with β-mangostin and α-MSH. The method, then: (§3) Total RNA was extracted from the cells by using RiboEX reagent (GeneAll Biotechnology Co. Ltd, Seoul, South Korea). cDNA was synthesized by using 2 μg of RNA based on reverse transcription (Thermo Scientific, Waltham, MA, USA). PCR was carried out by using Solg™ e-Taq DNA polymerase kit (SolGent Co. Ltd, Daejeon, South Korea), and each primer described in the following Table 1 was used for PCR.
Total proteins were extracted by using RIPA dissolving buffer (50 mM Tris-HCl (pH 8.0), 150 mM NaCl, 1% NP-40, 0.5% sodium dioxycholate and 0.1% SDS). […] The membrane was then incubated with 5% skim milk and primary antibody for 1 hour in TBS (tris-buffer saline) containing 0.1% Tween 20. The antibodies against tyrosinase and TRP-1 were purchased from Santa Cruz Biotechnology, USA. LC3B, p62 and ATG5 were purchased from CST (Cell Signaling Technology, USA). The antibody against PMEL was purchased from Abcam (UK). Signal detection was made based on enhanced chemiluminescence (Bio-Rad).
For orientation: A western blot detects proteins with antibodies after separation by electrophoresis.

The target in series [4] is T1, tyrosinase (Mus musculus, UniProt P11344).
T1 construct: The cultured cells were collected and dissolved with 1% Triton X-100 solution for 1 hour on ice; endogenous in cells; host or cells: B16F10 mouse melanoma cells
T1 sequence (P11344 19-533): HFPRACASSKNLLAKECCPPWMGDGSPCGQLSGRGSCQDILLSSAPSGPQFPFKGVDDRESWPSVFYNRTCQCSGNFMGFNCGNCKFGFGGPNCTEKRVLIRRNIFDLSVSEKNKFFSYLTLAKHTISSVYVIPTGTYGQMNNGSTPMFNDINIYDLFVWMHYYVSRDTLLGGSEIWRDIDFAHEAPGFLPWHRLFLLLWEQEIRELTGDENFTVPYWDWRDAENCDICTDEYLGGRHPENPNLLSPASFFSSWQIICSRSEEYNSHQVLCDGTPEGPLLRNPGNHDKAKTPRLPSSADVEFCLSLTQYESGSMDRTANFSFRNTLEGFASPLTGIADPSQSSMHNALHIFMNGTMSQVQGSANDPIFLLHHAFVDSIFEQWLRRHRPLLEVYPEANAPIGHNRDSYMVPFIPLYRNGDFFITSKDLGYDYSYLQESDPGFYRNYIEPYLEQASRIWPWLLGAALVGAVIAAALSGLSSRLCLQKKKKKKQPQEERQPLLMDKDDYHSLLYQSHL
Kind of series: Tyrosinase activity (L-DOPA oxidation) in cell lysates. The format is cell-based. The method, then: Tyrosinase activity was measured by slightly modifying the method by Ohgushi et al. (Ohgushi et al., 2009, Biological & Pharmaceutical Bulletin 32, 308-10). Specifically, B16F10 cells were inoculated into a 6-well plate and cultured for 24 hours. Thereafter, the cells were treated with β-mangostin and α-MSH, each at 1 μM, followed by culture for 48 hours. The cultured cells were collected and dissolved with 1% Triton X-100 solution for 1 hour on ice. The proteins were cultured with 100 μl (2 mg/ml) L-DOPA in a 5% CO2 humidifying incubator at 37° C. condition. By using a microplate reader (Bio-Rad), absorbance at 490 nm was measured.

For series [5], the system named is B16F10 mouse melanoma cells. Kind of series: Cell viability (MTT analysis). The format is cell-based. The note with it: 24 hours, at 20 μM and 40 μM. On the procedure: B16F10 cells were cultured for 24 hours in a 96-well plate. […] Subsequently, a MTT solution (5 μg/mL) was added to the cells, which were then cultured for 3 hours. After removing the medium and treating the cells with DMSO, the cells were cultured for 20 minutes. By using a microplate reader (Bio-Rad), absorbance at 595 nm was measured.
Then, based on MTT […]-(4,5-dimethylthiazol-2-yl)-2,5-diphenyltetrazolium bromide) analysis, cell viability was determined.

For series [6], the system named is B16F10 mouse melanoma cells. The experiment in a line: Suppression of α-MSH-induced pigmentation (cell pellet color). The format is cell-based. The note with it: co-treatment with α-MSH, 72 hours. The method, then: as §2, with “In order to see whether or not β-mangostin can suppress the pigmentation induced by α-MSH (melanocyte-stimulating hormone), B16F10 cells were treated with α-MSH and β-mangostin followed by incubation for 72 hours. As” for “As”

In series [7] the test system is B16F10 mouse melanoma cells. The experiment in a line: Removal of melanin previously produced by α-MSH. The series is classed as cell-based. As to conditions: treatment after 2 days of α-MSH. The method, then: In order to determine the activity of β-mangostin for removing melanin which has been previously produced by α-MSH as a melanin cell stimulating hormone, B16F10 cells were treated for 2 days with α-MSH to have synthesis of melanin. Thereafter, the cells were treated with β-mangostin of the present invention and 3-MA, which is an autophagy inhibitor.

Series [8] concerns TRP-1 (tyrosinase-related protein-1). The experiment in a line: TRP-1 expression (RT-PCR and Western blotting). The note with it: B16F10 cells. The series is classed as cell-based, mouse. On the procedure:
as §3, §1
In order to confirm the whitening effect of β-mangostin, RT-PCR and Western blotting analysis were carried out for tyrosinase and TRP-1.

Series [9] relates to mRFP-EGFP-LC3B in B16F10 cells. The experiment in a line: Melanosome autophagy in cells expressing mRFP-EGFP-LC3B (confocal microscopy). The format is cell-based, mouse. The note with it: β-mangostin (10 μM) and α-MSH (1 μM). The method, then:
B16F10 cells were infected with mRFP-EGFP-LC3B (Kimura et al., 2007, Autophagy 3, 452-60) by using Lipofectamine 3000 (Invitrogen, Carlsbad, CA, USA). The cells were treated with β-mangostin (10 μM) and α-MSH (1 μM), and analysis was made by using confocal microscopy (FV1000, Olympus, Tokyo, Japan).
In order to confirm whether or not β-mangostin can induce the autophagy of a melanosome, B16F10 cells were infected with a construct expressing mRFP-EGFP-LC3B, and then treated with β-mangostin and α-MSH. […] On the other hand, the number of red spots increased in the group treated with both α-MSH and β-mangostin while total number of spots has decreased. If an autophagosome fuses with a lysosome only after wrapping the melanosome, the intra-autophagosomal pH should decrease, and EGFP should be abolished under acidic pH conditions. Accordingly, it was found from the above results that, due to the autophagy enhanced by β-mangostin, degradation of a melanosome has occurred.

[10] abbreviates: siATG5, β-mangostin (10 μM) and α-MSH (1 μM), 48 hours.
[11] abbreviates: treatment after 2 days of α-MSH (melanin previously produced).

Where a SMILES comes first, the peptide text is derived from it. The star is where a group is joined. Cbz = O=C(OCc1ccccc1)*

The source of these data is patent US11882858B2, “Composition for skin whitening comprising β-mangostin as effective ingredient” (INDUSTRY-ACADEMIC COOPERATION FOUNDATION GYEONGSANG …, priority 2015, dated 2024).

Consider `Cn1cnc(N)c2ncnc1-2` [3-methyladenine], for which, in series [1], the “effect on the suppressed expression of p62 and PMEL induced by β-mangostin” value is recorded as “inhibit the suppressed expression”. In [2], the “influence on melanin content” value was “starts to increase again”. In addition, the “effect on the suppressed tyrosinase expression induced by β-mangostin” value in the series on tyrosinase [3] was “inhibited”.

`CC(C)C[C@@H](C=O)NC(=O)[C@H](CC(C)C)NC(=O)[C@H](CC(C)C)NC(=O)OCc1ccccc1` [MG132] (Cbz-Leu-Leu-Leu-aldehyde): in [2], the “influence on melanin content” value is given as “no influence”. Also, the tyrosinase expression amount entry in the series with tyrosinase [3] (co-treatment of inhibitor with β-mangostin and α-MSH (proteasome dependence)) is given as “did not increase”. For the same compound, the “influence on L-DOPA oxidation” value on tyrosinase [4] (co-treatment of inhibitor with β-mangostin and α-MSH) was “no influence”.

For `CO/C1=C\C(C)=C\[C@@H](C)[C@@H](O)[C@@H](C)C/C(C)=C/C=C/[C@H](OC)[C@@H]([C@@H](C)[C@@H](O)[C@H](C)[C@@]2(O)C[C@@H](O)[C@H](C)[C@@H](C(C)C)O2)OC1=O` [bafilomycin A1], in the series on tyrosinase [3], the “effect on the suppressed tyrosinase expression induced by β-mangostin” value is “inhibits”.

As to `CCN(CC)CCCC(C)Nc1ccnc2cc(Cl)ccc12` (centres unmarked) [chloroquine, reference compound], the “effect on the suppressed expression of p62 and PMEL induced by β-mangostin” value in series [1] is “inhibit the suppressed expression”. For the same compound, the “effect on the suppressed tyrosinase expression induced by β-mangostin” value with tyrosinase [3] is on record as “inhibited”.

`COc1c(O)cc2oc3cc(O)c(CC=C(C)C)c(O)c3c(=O)c2c1CC=C(C)C` [α-mangostin]: in [5], the “cytotoxicity (cell viability, MTT)” value was “potent cytotoxicity”. Besides, the melanin content reduction result in series [2] was “about 20%”.

`COc1cc2oc3cc(O)c(OC)c(CC=C(C)C)c3c(=O)c2c(O)c1CC=C(C)C` [β-mangostin]: in [6], the cell pellet color entry was “changed from black color to white color”. In addition, in [7], the “content of previously formed melanin” value is “lower effectively”. Also, the “expression of p62 and PMEL reduced by β-mangostin, after knockdown of ATG5” value in series [1] (setting [10]) is reported as “increased again”. For the same compound, the “expression amount of PMEL” value in [1] (setting [11]) is “lower a significant expression amount”. Further, the “expression amount of TRP-1 induced by α-MSH” value in series [8] is given as “effectively lowered”. In series [2], the “change in melanin content” value is “effectively reduced” and the melanin content reduction is listed as roughly 40%. The “melanin content level reduced by β-mangostin, after knockdown of ATG5” value in series [2] (setting [10]) was “increased again”. For the same compound, the “expression amount of tyrosinase induced by α-MSH” value with tyrosinase [3] (RT-PCR and Western blotting, B16F10 cells) was “effectively lowered”. Moreover, in the series with tyrosinase [3] (setting [10]), the “expression of tyrosinase reduced by β-mangostin, after knockdown of ATG5” value is “increased again”. The “expression amount of tyrosinase” value in the series with tyrosinase [3] (setting [11]) is “lower a significant expression amount”. In series [9], the “number of red spots (mRFP-EGFP-LC3B)” value is listed as “increased” and the “total number of spots (mRFP-EGFP-LC3B)” value was “decreased”. For the same compound, the “oxidation level of L-DOPA” value on tyrosinase [4] (co-treatment with α-MSH, concentration dependent) is “effectively reduced”.

`CC(C)=CCc1c(O)cc2oc3cc(O)c(O)c(CC=C(C)C)c3c(=O)c2c1O` [γ-mangostin]: in series [2], the “change in melanin content” value was “further increased the melanin content”.
